Measured values: ChEMBL document CHEMBL1146907, “New, potent P1/P2-morpholinone-based HIV-protease inhibitors” (Bioorg Med Chem Lett, 2006)

What follows are compounds tested against Human immunodeficiency virus type 1 protease (Human immunodeficiency virus 1, UniProt Q72874) (assay: Inhibition of HIV protease).

Going from COc1ccc(S(=O)(=O)N(CC2CCCC2)C[C@@H](O)CN2C(=O)C3(CCCCC3)OC[C@@H]2Cc2ccccc2)cc1 to COc1ccc(S(=O)(=O)N(CC2CCCC2)C[C@@H](O)CN2C(=O)C3(CC3)OC[C@@H]2Cc2ccccc2)cc1, the Ki rises from 2 nM to 9 nM (4.5-fold). The first binds more tightly here.

Going from COc1ccc(S(=O)(=O)N(CC2CCCC2)C[C@@H](O)CN2C(=O)[C@@H](Cc3ccccc3)OC[C@@H]2Cc2ccccc2)cc1 to COc1ccc(S(=O)(=O)N(CC2CCCC2)C[C@@H](O)CN2C(=O)[C@H](Cc3cccc(C#N)c3)OC[C@@H]2Cc2ccccc2)cc1, the Ki rises from 35 nM to 490 nM (14-fold).

First: COc1ccc(S(=O)(=O)N(CC2CCCC2)C[C@@H](O)CN2C(=O)[C@@H](CCCN)OC[C@@H]2Cc2ccccc2)cc1
Second: COc1ccc(S(=O)(=O)N(CC2CCCC2)C[C@@H](O)CN2C(=O)[C@@H](CCN)OC[C@@H]2Cc2ccccc2)cc1
The Ki of the first is 9.7-fold higher: 5800 nM for the first, 600 nM for the second.

Going from COc1ccc(S(=O)(=O)N(CC2CCCC2)N2C(=O)C3(CCOCC3)OC[C@@H]2Cc2ccccc2)cc1 to COc1ccc(S(=O)(=O)N(CC2CCCC2)C[C@@H](O)CN2C(=O)[C@H](C)OC[C@@H]2Cc2ccccc2)cc1, the Ki rises from 23 nM to 38 nM (1.7-fold).

Going from C=CC[C@@H]1OC[C@H](Cc2ccccc2)N(C[C@H](O)CN(CC2CCCC2)S(=O)(=O)c2ccc(OC)cc2)C1=O to C=CC[C@H]1OC[C@H](Cc2ccccc2)N(C[C@H](O)CN(CC2CCCC2)S(=O)(=O)c2ccc(OC)cc2)C1=O, the Ki falls from 270 nM to 2 nM (140-fold).

Going from COc1ccc(S(=O)(=O)N(CC2CCCC2)C[C@@H](O)CN2C(=O)[C@@H](CCO)OC[C@@H]2Cc2ccccc2)cc1 to COc1ccc(S(=O)(=O)N(CC2CCCC2)C[C@@H](O)CN2C(=O)[C@@H](CCC(N)=O)OC[C@@H]2Cc2ccccc2)cc1, the Ki rises from 30 nM to 49 nM (1.6-fold).

First: COc1ccc(S(=O)(=O)N(CC2CCCC2)C[C@@H](O)CN2C(=O)[C@@H](CCN=[N+]=[N-])OC[C@@H]2Cc2ccccc2)cc1
Second: COc1ccc(S(=O)(=O)N(CC2CCCC2)C[C@@H](O)CN2C(=O)[C@@H](CCC#N)OC[C@@H]2Cc2ccccc2)cc1
The Ki of the first is 7.4-fold higher: 81 nM for the first, 11 nM for the second.

With COc1ccc(S(=O)(=O)N(CC2CCCC2)C[C@@H](O)CN2C(=O)[C@@H](Cc3cccc(C#N)c3)OC[C@@H]2Cc2ccccc2)cc1 the Ki was 55 nM.
